The results in this text go back to ChEMBL document CHEMBL3046393, “3D-QSAR studies of thiosemicarbazone and thiocarbamoylpyrazoline antiamebics” (Med Chem Res, 2013).

The structures appear in SMILES notation.

In general, IC50 refers to the concentration that gives 50% inhibition.

The test system of this assay is Entamoeba histolytica. Kind of assay: Antiamoebic activity against trophozoite stage of Entamoeba histolytica HM-1:IMSS assessed as parasite growth inhibition after 72 hr by microdilution assay. Type of assay: functional, organism-based. A general note: Dilution methods test growth across graded concentrations, often in twofold steps.
Regarding `S=C(NC1CCCCC1)N1CCC(c2cccc(Cl)c2)=N1`, the IC50 turned out to be 2.4 µM.
The same measure for `CCCCN(C)C(=S)N1CCC(c2ccccc2)=N1`: 5.7 µM; for `CCCNC(=S)N1CCC(c2ccccc2)=N1`: 14 µM.
Regarding `S=C(NC1CCCC1)N1CCC(c2cccc(Br)c2)=N1`, the IC50 worked out at 4.2 µM.
For `CCN(CC)C(=S)N1CCC(c2cccc(Cl)c2)=N1` the value was 1 µM; for `S=C(NCc1ccccc1Cl)N1CCC(c2cccc(Br)c2)=N1`, 2.6 µM; for `S=C(N1CCN(c2ccccc2)CC1)N1CCC(c2cccc(Cl)c2)=N1`, 1.2 µM.
The same measure for `S=C(NC1CCCC1)N1CCC(c2cccc(Cl)c2)=N1`: 3.7 µM; for `CC(C)NC(=S)N1CCC(c2ccccc2)=N1`: 23 µM.
The same measure for `S=C(NC1CCCC1)N1CCC(c2ccccc2)=N1`: 6.5 µM.
In the case of `CCCN(CCC)C(=S)N1CCC(c2cccc(Cl)c2)=N1`, the IC50 was determined as 0.6 µM.
The same measure for `S=C(NCc1ccccc1Cl)N1CCC(c2ccccc2)=N1`: 7.6 µM; for `CCCNC(=S)N1CCC(c2cccc(Br)c2)=N1`: 8.5 µM.
For `CCCN(CCC)C(=S)N1CCC(c2ccccc2)=N1` the value was 2 µM.
Consider `CCN(CC)C(=S)N1CCC(c2cccc(Br)c2)=N1`, for which the IC50 came to 1.2 µM.
For `CC(C)CNC(=S)N1CCC(c2cccc(Cl)c2)=N1` the value was 5 µM.
The same measure for `CCCCN(C)C(=S)N1CCC(c2cccc(Br)c2)=N1`: 2.4 µM.
The same measure for `CC1CCN(C(=S)N2CCC(c3cccc(Cl)c3)=N2)CC1`: 2.8 µM.
For the compound `CCCN(CCC)C(=S)N1CCC(c2cccc(Br)c2)=N1`, the IC50 amounted to 0.8 µM.
Take `CCCCN(C)C(=S)N1CCC(c2cccc(Cl)c2)=N1`: the IC50 amounted to 0.7 µM.
For the compound `S=C(N1CCC(Cc2ccccc2)CC1)N1CCC(c2cccc(Br)c2)=N1`, the IC50 was 1.4 µM.
For the compound `CC1CCN(C(=S)N2CCC(c3cccc(Br)c3)=N2)CC1`, the IC50 came to 3.6 µM.
The same measure for `CCCCNC(=S)N1CCC(c2cccc(Br)c2)=N1`: 14.2 µM; for `CCCCNC(=S)N1CCC(c2ccccc2)=N1`: 23.3 µM; for `S=C(NC1CCCCC1)N1CCC(c2cccc(Br)c2)=N1`: 3.1 µM.
For `CC(C)CNC(=S)N1CCC(c2cccc(Br)c2)=N1` the value was 6.1 µM.
For `S=C(NC1CCCCCCC1)N1CCC(c2ccccc2)=N1` the value was 2.5 µM; for `CCN(CC)C(=S)N1CCC(c2ccccc2)=N1`, 4.2 µM.
Regarding `CC(C)CNC(=S)N1CCC(c2ccccc2)=N1`, the IC50 worked out at 11.2 µM.
The same measure for `S=C(NCc1ccccc1Cl)N1CCC(c2cccc(Cl)c2)=N1`: 2.2 µM; for `CC(C)NC(=S)N1CCC(c2cccc(Cl)c2)=N1`: 12.2 µM.
The same measure for `S=C(NC1CCCCCCC1)N1CCC(c2cccc(Cl)c2)=N1`: 1.5 µM; for `S=C(N1CCN(c2ccccc2)CC1)N1CCC(c2ccccc2)=N1`: 3.1 µM.
For `CCCCNC(=S)N1CCC(c2cccc(Cl)c2)=N1`, the IC50 was determined as 12.3 µM.
The same measure for `S=C(NC1CCCCC1)N1CCC(c2ccccc2)=N1`: 5.2 µM; for `CC(C)/N=C(\S)N1CCC(c2cccc(Br)c2)=N1`: 15.2 µM.
For `S=C(N1CCN(c2ccccc2)CC1)N1CCC(c2cccc(Br)c2)=N1` the value was 1.6 µM; for `CC1CCN(C(=S)N2CCC(c3ccccc3)=N2)CC1`, 4.8 µM.
For `S=C(N1CCC(Cc2ccccc2)CC1)N1CCC(c2ccccc2)=N1` the value was 2.3 µM; for `S=C(NC1CCCCCCC1)N1CCC(c2cccc(Br)c2)=N1`, 2 µM.
